Here are results for one compound from patent US20230148144A1, “Cell” (AUTOLUS LIMITED, priority 2020, published 2023).

SMILES strings stand for the structures.

This assay has as its system CAR-T cells. Kind of assay: Effect of Tacrolimus on proliferation of CAR-expressing cells in co-culture. Format: cell-based. Conditions: 20 ng/ml Tacrolimus. The procedure: Cells were co-cultures for 96 hours at a 1:4 E:T ratio in the presence or absence of 20 ng/ml of Tacrolimus. Transduced effector cells were identified based on their expression of RQR8 and their proliferation analysed using cell-trace violet (CTV) dilution. […] In a similar study, cells transduced to express either TRBC2 CAR alone or TRBC2 CAR in combination with a calcineurin mutant (CnB30) were co-cultured for 4 days with TRBC2+ positive targets in the presence or absence of 20 ng/ml of Tacrolimus. […] This was true for cells expressing TRBC2 CAR alone or co-expressing TRBC2 CAR in combination with the calcineurin mutant.

Take `C=CC[C@@H]1/C=C(\C)C[C@H](C)C[C@H](OC)[C@H]2O[C@@](O)(C(=O)C(=O)N3CCCC[C@H]3C(=O)O[C@H](/C(C)=C/[C@@H]3CC[C@@H](O)[C@H](OC)C3)[C@H](C)[C@@H](O)CC1=O)[C@H](C)C[C@@H]2OC` [Tacrolimus]: the “proliferation of cells expressing TRBC2 CAR alone” value (4 days co-culture with TRBC2+ targets, FIG. 22) is recorded as “inhibits proliferation”. Further, the “proliferation of CAR-T cells” value (96 h co-culture, FIG. 16B vs FIG. 17B) is on record as “inhibited”.
